Measured values: article PMC3413639 (PLoS ONE, 2012)
Like-named read-outs stand apart in the source and are kept apart here. Each block holds one compound with its values, some of them ahead of it.

Legend:
5-HT1A receptors [1] = target: T1, 5-HT1A receptors (Rattus norvegicus, UniProt P19327); test: [11C]WAY-100635-PET of rats treated with 5,7-DHT, a toxicant for 5-HT neurons; conditions: 150 µg into right lateral ventricle, scan more than 2 weeks later
T1 sequence (P19327 1-422): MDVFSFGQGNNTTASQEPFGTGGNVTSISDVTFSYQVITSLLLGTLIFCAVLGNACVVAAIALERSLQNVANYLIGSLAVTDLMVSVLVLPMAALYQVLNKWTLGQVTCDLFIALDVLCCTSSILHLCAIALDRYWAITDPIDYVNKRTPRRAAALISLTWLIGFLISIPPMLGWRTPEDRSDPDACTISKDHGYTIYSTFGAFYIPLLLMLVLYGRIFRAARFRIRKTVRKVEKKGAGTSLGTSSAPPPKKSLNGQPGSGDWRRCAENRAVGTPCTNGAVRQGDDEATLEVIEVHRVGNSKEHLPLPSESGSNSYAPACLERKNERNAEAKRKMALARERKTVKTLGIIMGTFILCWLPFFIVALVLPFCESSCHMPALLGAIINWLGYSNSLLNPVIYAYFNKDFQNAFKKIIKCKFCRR

5-HT1A receptors [2] = target: T1, 5-HT1A receptors; test: [11C]WAY-100635-PET, BPND and 5-HT1A receptor occupancy; format: in vivo; parameters: Twenty-micrometer-thick frozen brain sections were preincubated; from tissue; host or cells: rat brain (hippocampus and raphe nucleus): frozen sections or living animals; conditions: for BPND Hippocampus / BPND Raphe: [11C]WAY-100635; for receptor occupancy at 3 mg/kg / ED50 / receptor occupancy at 1 mg/kg / receptor occupancy at 10 mg/kg / receptor occupancy at 30 mg/kg: rat, ip; for ED50: read-out: ED50 (5-HT1A receptor occupancy), intraperitoneal, PET
Description: All PET scans were carried out using a microPET Focus 220 scanner (Siemens Medical Solutions USA, Knoxville, TN). The rats were anesthetized with 1.5–2% isoflurane in air (2 L/min flow rate). […] All list-mode data were stored into 3D sinograms, which were then Fourier-rebinned into 2D sinograms (26 frames: 4×1, 8×2, and 14×5 min). Images were reconstructed using 2D-filtered back-projection with a 0.5-mm Hanning filter. All PET images were manually coregistered to the MRI template by spatial translation and rotation of original PET images without geometric expansion and contraction. ROIs were placed on the hippocampus and raphe nucleus using PMOD® image analysis software (PMOD Group, Zurich, Switzerland) with reference to the MRI template. Fine-tuning of the location of ROIs was then performed based on PET images at an early phase (0–30 min) of the scan in order to compensate for small mismatches between coregistered PET and MR images. The cerebellum was used as reference tissue because of its negligible density of 5-HT1A receptors.

[3] = humans; cited from earlier work
5-HT1A receptors [4] = target: T1, 5-HT1A receptors; test: In vitro ARG, inhibition of [11C]WAY-100635 binding in rat brain sections; parameters: Twenty-micrometer-thick frozen brain sections were preincubated; from tissue; host or cells: rat brain (hippocampus and raphe nucleus): frozen sections or living animals; conditions: hippocampus and raphe nucleus; up to 1000 nM
Description: Rats were sacrificed by decapitation. Twenty-micrometer-thick frozen brain sections were preincubated for 30 min in 50 mM Tris-HCl (pH 7.4) containing 1 mM MnCl2. […] Subsequently, the sections were rinsed twice with ice-cold Tris-HCl buffer for 5 min and then desalted with ice-cold distilled water for 10 sec. These samples were warmly blow-dried and placed in contact with an imaging plate (Fuji Film, Tokyo, Japan) for 60 min. Signals on the imaging plate were detected by BAS5000 system (Fuji Film).

[5] = rats; cited from earlier work
5-HT1A receptors [6] = target: T1, 5-HT1A receptors; test: Autoradiographic [35S]GTPγS binding in rat brain sections; format: biochemical; parameters: Twenty-micrometer-thick frozen brain sections were preincubated; from tissue; host or cells: rat brain (hippocampus and raphe nucleus): frozen sections or living animals
Description: Autoradiographic procedures were performed as described previously, with some modifications. The sections were preincubated for 15 min in 50 mM 4-(2-hydroxyethyl)-1-piperazineethanesulfonic acid (HEPES; pH 7.4) containing 10 mM NaCl, 3 mM MgCl2 and 0.2 mM ethylene glycol tetraacetic acid. A second preincubation using the same buffer containing 2 mM GDP was performed for 15 min. The sections were subsequently incubated in the same buffer containing 2 mM GDP, 0.2 mM dithiothreitol and 0.04 nM [^35S]GTPγS for 120 min. Basal [^35S]GTPγS binding was defined in the absence of test drugs. […] Nonspecific binding was estimated using 10 µM nonradioactive GTPγS. The incubation was terminated by ice-cold 50 mM HEPES (pH 7.0). The sections were desalted with ice-cold distilled water, dried, and placed in contact with an imaging plate for 2 days. Signal detection and image analysis were performed as described above.

5-HT1A receptors [7] = target: T1, 5-HT1A receptors; test: Ex vivo ARG, 5-HT1A receptor occupancy after drug administration; format: in vivo; parameters: Twenty-micrometer-thick frozen brain sections were preincubated; from tissue; host or cells: rat brain (hippocampus and raphe nucleus): frozen sections or living animals; conditions: for ED50: rat, ip, read-out: ED50 (5-HT1A receptor occupancy), intraperitoneal, ex vivo ARG
Description: Animals were then killed by decapitation 5 h and 30 min after their administration, respectively. Autoradiographic analysis was performed using procedures similar to in vitro ARG except for incubation temperature (37°C) and times for preincubation (30 sec), incubation (5 min) and rinsing (1 min). […] The doses of these drugs at half-maximal effect (ED50) were determined according to the following relationship: [drawing 2] where D is the dose of the drug.

5-HT1A receptors [8] = conditions: maximal safe dose; cited from earlier work
[9] = 1 mg/kg intraperitoneal, about 30 min before scan, mean ± S.E.
[10] = 3 mg/kg intraperitoneal + 30 mg/kg fluvoxamine (FLV) oral 30 min before pindolol, mean ± S.E.
[11] = 3 mg/kg intraperitoneal, about 30 min before scan, mean ± S.E.
[12] = 10 mg/kg intraperitoneal, about 30 min before scan, mean ± S.E.
[13] = 30 mg/kg intraperitoneal, about 30 min before scan, mean ± S.E.
[14] = read-out: Occupancy (%) Hippocampus

SMILES: NCCc1c[nH]c2c(O)cc(O)cc12 [5,7-DHT, 5,7-dihydroxytryptamine, reference compound]
BPND for [11C]WAY-100635 after toxicant treatment (5-HT1A receptors [1]; hippocampus): almost unchanged
BPND for [11C]WAY-100635 after toxicant treatment (5-HT1A receptors [1]; raphe nucleus): profoundly decreased

Effect on 5-HT1A receptor occupancies by pindolol (5-HT1A receptors [2]; 30 mg/kg oral, 30 min before pindolol treatment): had no effect
SMILES: COCCCC/C(=N\OCCN)c1ccc(C(F)(F)F)cc1 [fluvoxamine, reference compound]

SMILES: CC(C)NCC(O)COc1cccc2[nH]ccc12 (stereo not drawn) [Pindolol, reference compound]
Proportion of protein-bound drug in plasma or serum [3]: 57%
Blockage of 5-HT1A receptors by excess amounts of drug (5-HT1A receptors [4]): near-complete blockage
Proportion of protein-bound drug in plasma or serum [5]: 52%
Slight increase in [35S]GTPγS binding (5-HT1A receptors [6]; high concentrations, hippocampus and raphe nucleus, p>0.05): not statistically significant
BPND Hippocampus (5-HT1A receptors [2]; [9]): 4.787±0.676
BPND Raphe (5-HT1A receptors [2]; [9]): 1.129±0.164
BPND Hippocampus (5-HT1A receptors [2]; [10]): 3.670±0.315
BPND Raphe (5-HT1A receptors [2]; [10]): 0.783±0.178
BPND Hippocampus (5-HT1A receptors [2]; [11]): 3.517±0.119
BPND Raphe (5-HT1A receptors [2]; [11]): 0.752±0.093
BPND Hippocampus (5-HT1A receptors [2]; [12]): 2.190±0.757
BPND Raphe (5-HT1A receptors [2]; [12]): 0.459±0.153
BPND Raphe (5-HT1A receptors [2]; 30 mg/kg intraperitoneal + 30 mg/kg fluvoxamine (FLV) oral 30 min before pindolol): 0
BPND Hippocampus (5-HT1A receptors [2]; 30 mg/kg intraperitoneal + 30 mg/kg fluvoxamine (FLV) oral 30 min before pindolol, mean ± S.E.): 0.343±0.065
BPND Hippocampus (5-HT1A receptors [2]; [13]): 0.441±0.173
BPND Raphe (5-HT1A receptors [2]; [13]): 0.029±0.029
receptor occupancy at 3 mg/kg (5-HT1A receptors [2]; read-out: Difference in occupancy between hippocampus and raphe nucleus): ~50%
ED50 (5-HT1A receptors [2]; hippocampus): 5.6 mg/kg
ED50 (5-HT1A receptors [2]; raphe nucleus): 2.4 mg/kg
receptor occupancy at 1 mg/kg (5-HT1A receptors [2]; [14]): 15 ± 11.8%
receptor occupancy at 3 mg/kg (5-HT1A receptors [2]; [14]): 37 ± 5.6%
receptor occupancy at 10 mg/kg (5-HT1A receptors [2]; [14]): 58.1 ± 18.4%
receptor occupancy at 30 mg/kg (5-HT1A receptors [2]; [14]): 91.8 ± 3.4%
receptor occupancy at 1 mg/kg (5-HT1A receptors [2]; read-out: Occupancy (%) Raphe): 33.7 ± 14.5%
receptor occupancy at 3 mg/kg (5-HT1A receptors [2]; read-out: Occupancy (%) Raphe): 57.3 ± 2.8%
receptor occupancy at 10 mg/kg (5-HT1A receptors [2]; read-out: Occupancy (%) Raphe): 69.6 ± 14.6%
receptor occupancy at 30 mg/kg (5-HT1A receptors [2]; read-out: Occupancy (%) Raphe): 98.3 ± 1.7%
5-HT1A receptor binding (occupancy), dose-dependent up to (5-HT1A receptors [7]; intraperitoneal, 30 min after administration, irrespective of region): ~70%
ED50 (5-HT1A receptors [7]; hippocampus): 8.5 mg/kg
ED50 (5-HT1A receptors [7]; raphe nucleus): 7.3 mg/kg
Occupancy of 5-HT1A autoreceptors (5-HT1A receptors [8]): 60%

SMILES: CCCN(CCC)C1CCc2cccc(O)c2C1 (stereo not drawn) [8-OH-DPAT, 8-hydroxy-2-(di-n-propylamino) tetralin]
[35S]GTPγS binding (5-HT1A receptors [6]; hippocampus and raphe nucleus, addition of agonist): enhanced
[35S]GTPγS binding compared with 1 µM WAY-100635 (5-HT1A receptors [6]; raphe nucleus, 1 µM, p<0.01): significantly increased
